Measurements from patent US10834946B2, “Flavor composition and edible compositions containing same” (Mars, Incorporated, priority 2013, dated 2020).
Square brackets hold non-standard residues; d marks the D form. Ends that are not written are not given here. pGlu = O=C1CC[C@@H](C(=O)O)N1

How the values were obtained:
[1] = test system: panelists (salt perception); test: Increased Salt Perception Protocol (descriptive sensory panel); type: in vivo, human; details: for Mean salt perception in mouth: scale anchored to 0.35% salt reference = 5.0; for Mean salt perception after expectoration: re-tasting of salt reference (0.35% salt, intensity 5.0)
Protocol: Descriptive Profiles (Flavor and Chemical Feeling Factors) of five use levels of a pGlu-Val-Leu flavor composition were determined. The five use levels were as follows:
Data was collected for the flavor and chemical feeling factors of the product in mouth for each of the five use levels according to the following protocol:
1. Each panelist tasted a salt reference (0.35% salt solution) with a reference salt intensity of 5.0 which provided a baseline for each panelist's Sensory Spectrum for salt intensity.
2. Each panelist tasted a test sample (0.1 ppb, 0.5 ppb, 1.0 ppb, 10.0 ppb or 40.0 ppb all in 0.2% NaCl solution). Only one sample was tasted per session.
3. Each panelist re-tasted the salt reference (5.0 intensity) and rated it for salt intensity as well as any other basic taste, chemical feeling factor, or aromatic perceived. Thus, any increased salt perception as a result of the test sample would be determined, as well as any other perceptions present. Return to Baseline Protocol
The test samples were formulated as follows: […]

[2] = test system: panelists (salt perception); test: Return to Baseline Protocol (saltiness aftertaste, sensory panel); type: in vivo, human; details: salt reference re-tasted at 1 minute intervals until intensity 5.0
Protocol: After evaluating the sample for salt and other perceptions (step 3 above), each panelist re-tasted the salt reference (5.0 intensity) at 1 minute intervals until their perception of the saltiness intensity of the reference returned to 5.0. Each panelist recorded salt intensity at each interval and took qualitative notes on other perceptions seen in aftertaste.

[pGlu]-Val-Leu
Mean salt perception in mouth ([1]; 0.1 ppb peptide in 0.2% NaCl solution): 2.3
Mean salt perception after expectoration ([1]; 0.1 ppb sample): 6.8
perception of salt in-mouth as concentration increased ([1]; 0.1 to 40.0 ppb in 0.2% NaCl solution): did not significantly increase
Mean salt perception in mouth ([1]; 0.5 ppb peptide in 0.2% NaCl solution): 2.8
Mean salt perception after expectoration ([1]; 0.5 ppb sample): 6.4
Mean salt perception in mouth ([1]; 1.0 ppb peptide in 0.2% NaCl solution): 2.3
Mean salt perception after expectoration ([1]; 1.0 ppb sample): 7.5
Mean salt perception in mouth ([1]; 10.0 ppb peptide in 0.2% NaCl solution): 3.1
Mean salt perception after expectoration ([1]; 10.0 ppb sample): 8.2
Mean salt perception in mouth ([1]; 40.0 ppb peptide in 0.2% NaCl solution): 2.8
Mean salt perception after expectoration ([1]; 40.0 ppb sample): 8.3
Salt perception after expectoration ([1]; all samples (0.1 to 40.0 ppb), versus reference intensity 5.0): increased
Mean time needed to return to baseline ([2]; 0.1 ppb sample): 7.6 min
Mean time needed to return to baseline ([2]; 0.5 ppb sample): 9.5 min
Mean time needed to return to baseline ([2]; 1.0 ppb sample): 8.7 min
Mean time needed to return to baseline ([2]; 10.0 ppb sample): 8.6 min
